Data taken from PubChem BioAssay (NCI).
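Each compound was tested at five concentrations against cells in 96-well plates for 48 hours. TGI denotes the concentration required for complete inhibition of growth.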 Where a SMILES comes first, the peptide text is derived from it. The star is where a group is joined. Fmoc = O=C(OCC1c2ccccc2-c2ccccc21)*; Boc = CC(C)(C)OC(=O)*

Columns and labels:
Test in all cases: inhibition of tumour cell growth, NCI panel, 48 h
SK-MEL-2 melanoma = system: SK-MEL-2 melanoma
T-47D breast = system: T-47D breast
MCF7 breast = system: MCF7 breast
BT-549 breast = system: BT-549 breast
KM12 colon = system: KM12 colon
HL-60(TB) leukemia = system: HL-60(TB) leukemia
SK-OV-3 ovarian = system: SK-OV-3 ovarian
OVCAR-5 ovarian = system: OVCAR-5 ovarian

Row | Compound | TGI (SK-MEL-2 melanoma) [µM] | TGI (T-47D breast) [µM] | TGI (MCF7 breast) [µM] | TGI (BT-549 breast) [µM] | TGI (KM12 colon) [µM] | TGI (HL-60(TB) leukemia) [µM] | TGI (SK-OV-3 ovarian) [µM] | TGI (OVCAR-5 ovarian) [µM]
1 | CCOC(=O)c1c(N2CCCC2)[nH]c(=O)c(C(c2ccco2)c2c(O)c(C(=O)OCC)c(N3CCCC3)[nH]c2=O)c1O | > 100 | > 100 | > 100 | > 100 | > 100 | > 100 | > 100 | > 100
2 | CC(C)(C)OC(=O)NCCCCC(NC(=O)OCC1c2ccccc2-c2ccccc21)C(=O)N1CCCC1C(=O)NCC(N)=O (stereo not drawn) (Fmoc-Lys(Boc)-Pro-Gly-NH2; configuration not given here) | > 100 | > 100 | > 100 | > 100 | 38.3 | > 100 | 26.5 | > 100
3 | O=C1/C(=C/c2ccccc2O)N=C(c2ccccc2)N1c1nc2ccccc2s1 | 43.4 | > 100 | 69.2 | – | > 100 | 2.97 | > 100 | > 100
4 | O=C/C=C/c1ccco1 | > 100 | > 100 | > 100 | > 100 | > 100 | > 100 | > 100 | > 100
5 | O=C1CCCC/C1=C\c1ccc(Br)cc1 | 46.4 | 51 | 7.4 | 28.7 | 5.83 | 7.23 | 44.5 | –
6 | COc1ccc(C(SCCO)(c2ccccc2)c2ccccc2)cc1 | 28 | 27 | 25 | 32.4 | 37 | 67 | 34.8 | 36.4
7 | COC(=O)C1CCC(=O)N1C(c1ccc(OC)cc1)c1ccc(OC)cc1 (configuration not stated) | > 100 | > 100 | > 100 | > 100 | > 100 | > 100 | > 100 | > 100
8 | NC1CC2NC3CCCCC3NC2CC1N (configuration not stated) | > 100 | – | > 100 | > 100 | > 100 | 94.9 | > 100 | > 100
9 | NCCCNC1(c2cc3ccccc3s2)CCCCC1 | 4.2 | 6.96 | 12.2 | 27.8 | 14.7 | 14.8 | 28.6 | 26.3
10 | O=C1[C@@H]2[C@@H](c3ccccc3)[C@]2(Cl)C(=O)[C@H]2[C@H](c3ccccc3)[C@@]12Cl | > 100 | > 100 | > 100 | > 100 | > 100 | > 100 | > 100 | > 100
11 | O=C(/C=C/c1ccc(/C=C/C(=O)c2ccc(O)cc2)cc1)c1ccc(O)cc1 | > 100 | > 100 | > 100 | > 100 | > 100 | > 100 | – | > 100
12 | CCSc1cc(=O)n(C)c(=O)n1C | > 100 | > 100 | > 100 | > 100 | > 100 | > 100 | > 100 | > 100
13 | COC(=O)C1=C(O)C(C(=O)OC)[C@]2(O)[C@H](C(=O)OC)[C@H]1C[C@@H](c1c(Cl)cccc1Cl)[C@H]2C(=O)OC (some centres not stated) | 3.33 | 23 | 12.3 | 6.99 | 8.6 | 18.7 | 14.2 | –
14 | CC1C2CC(C(S(=O)(=O)N3CCOCC3)/C2=N\O)C1(C)C (configuration not stated) | – | > 100 | > 100 | > 100 | > 100 | > 100 | > 100 | –
15 | Cn1/c(=N\S(=O)(=O)c2ccccc2)n(S(=O)(=O)c2ccccc2)c2ccccc21 | > 100 | > 100 | – | > 100 | > 100 | 7.16 | > 100 | > 100
16 | CCOC(=O)NC(NC1=NCCS1)(C(=O)OCC)C(F)(F)F (configuration not stated) | > 100 | > 100 | > 100 | – | > 100 | > 100 | > 100 | > 100
17 | COc1ccc2oc(OC)c(CC=C(C)C)c(=O)c2c1C | > 100 | > 100 | > 100 | > 100 | > 100 | > 100 | > 100 | > 100
18 | COc1ccc2sc(-n3nc4ccccc4c3Nc3nc4ccc(OC)cc4s3)nc2c1 | > 52.4 | 5.64 | 42 | 14 | 25.5 | – | 7.47 | 13.8
19 | Fc1ccc2nc3n(c2c1)C(c1c(Cl)cccc1Cl)SC3 (configuration not stated) | > 100 | > 100 | > 100 | > 100 | > 100 | – | > 100 | > 100
20 | CCOC(=O)C1OC(C2(C)OC3(OC4(C=CC3O)OC(C(C)C(=O)C(C)C(O)C(C)CC(C)c3c(Cl)cc(C)c(O)c3C(=O)O)C(C)CC4C)C(C)C2OC)CC1O (configuration not stated) | 1.13 | – | 23.1 | 17.2 | 6.41 | 4.66 | 3.26 | 21
21 | CC(C)(C)c1cc(C2=NN(c3ccccc3)C(c3ccccc3)C2)cc(C(C)(C)C)c1O (configuration not stated) | > 100 | > 100 | > 100 | > 100 | > 100 | > 100 | > 100 | > 100
22 | Brc1ccc2c([C@H]3CN[C@@H](c4c[nH]c5cc(Br)ccc45)CN3)c[nH]c2c1 | 9.76 | 12.8 | 4 | 24.7 | 3.28 | 4.22 | 22.7 | 10.5
23 | O=S(=O)(O)ON=C1c2ccccc2-c2ccccc21 | > 100 | > 100 | > 100 | > 100 | > 100 | > 100 | > 100 | > 100
24 | N=C(N)SCc1ccc(Cl)cc1Cl (tested in a mixture with another compound) | 27.5 | 39 | 28.5 | 36 | 28.2 | 22.4 | 40.2 | 35.7
25 | Cc1ccc(-n2[nH]nc(C#N)c2=O)cc1 | > 100 | > 100 | > 100 | > 100 | > 100 | > 100 | > 100 | > 100
26 | O=C(Cc1nccc2c1[nH]c1ccccc12)OC1C#CCSCC#C/C=C\1 (configuration not stated) | – | > 100 | > 100 | > 100 | > 100 | > 100 | > 100 | –
27 | O=c1oc2cc(O)ccc2c(O)c1C(c1cccnc1)c1c(O)c2ccc(O)cc2oc1=O | > 100 | > 100 | > 100 | > 100 | > 100 | > 100 | > 100 | > 100

Row | Compound | TGI (SK-MEL-2 melanoma) [µM] | TGI (T-47D breast) [µM] | TGI (MCF7 breast) [µM] | TGI (BT-549 breast) [µM] | TGI (KM12 colon) [µM] | TGI (HL-60(TB) leukemia) [µM] | TGI (SK-OV-3 ovarian) [µM] | TGI (OVCAR-5 ovarian) [µM]
28 | O=C(/C=C/c1ccc(O)c(O)c1)c1cc(O)cc(O)c1 | 28.2 | 29.3 | 12.7 | 24.7 | – | – | 42.9 | 28.9
29 | COc1ccc(/C=C2\CCC(CNc3ccc(OC)cc3)C2=O)cc1 (configuration not stated) | – | 57.1 | 13.3 | 26.8 | 23.8 | 17.5 | > 100 | 38.1
30 | Cc1cc(C)c2c(n1)S(=O)(=O)N(CCCN1CCN(c3cccc(C(F)(F)F)c3)CC1)c1c-2nn(C)c1C | > 100 | > 100 | > 100 | > 100 | > 100 | > 100 | > 100 | > 100
31 | Cn1c2ccccc2c2c(=O)[nH]c(=O)[nH]c21 | > 100 | > 100 | > 100 | > 100 | > 100 | > 100 | > 100 | > 100
32 | CSc1c(C#N)c(N)nc2c(N=Nc3ccc(Cl)cc3)c(N)nn12 | 8.82 | 3.86 | 4.71 | 9.97 | 11.8 | 5.23 | 67.1 | 39.6
33 | CCN1CCN(c2nc3ccc([N+](=O)[O-])cc3nc2C(=O)c2ccccc2)CC1 | 29.3 | > 100 | 34.8 | 16.9 | 31.8 | 61.9 | 41.7 | 36.1
34 | Cc1cc(Cc2c(F)c(F)c(C(c3cc(C)no3)c3c(F)c(F)c(F)c(F)c3F)c(F)c2F)on1 (configuration not stated) | > 100 | > 100 | > 100 | > 100 | > 100 | > 39.6 | > 100 | > 100
35 | c1csc(-c2cc(-c3cccs3)c(-c3cccs3)s2)c1 | – | 77 | 66.8 | > 100 | > 100 | – | > 100 | > 100
36 | CN(C)c1nncc2[nH]cnc12 | > 100 | > 100 | > 100 | > 100 | > 100 | > 100 | – | > 100
37 | O=c1[nH]c(Nc2cc(Cl)cc(Cl)c2)nc2nc[nH]c12 | > 75 | > 75 | > 75 | > 75 | > 75 | – | > 75 | > 75
38 | CSc1ccc(NC(=S)NN(C)C)cc1 | > 10 | > 10 | > 10 | – | > 10 | > 10 | > 10 | –
39 | CCCCN1C(=O)c2c(-c3sccc3N)sc(-c3sccc3N)c2C1=O | > 100 | > 100 | > 100 | > 88.9 | > 100 | – | 35.8 | > 78.9
40 | CCOc1ccc(/C=N/[N+](C)(C)C)cc1OCC | – | > 10 | > 10 | > 10 | > 10 | – | > 10 | > 10
41 | COCOc1c(C(O[Si](C)(C)C(C)(C)C)c2cnc(Sc3ccccc3)n2C)ccc(OC)c1OC (configuration not stated) | 3.05 | > 100 | 3.8 | 4.02 | 3.93 | – | 7.74 | > 100
42 | CC1OC2(CC(OCc3ccccc3)C1OCc1ccccc1)OCCO2 (configuration not stated) | > 100 | – | > 100 | > 100 | > 100 | 48.9 | > 100 | > 100
43 | CSCCCNC(=O)c1csc(-c2csc(C(CNC(=O)OC(C)(C)C)CNC(=O)OC(C)(C)C)n2)n1 | 73.7 | > 100 | > 100 | > 100 | > 100 | – | > 100 | > 100
44 | COC(=O)/C=C/c1ccc2c(c1)CC1(C2)Cc2cc3c(cc2C1=O)CCC3 (configuration not stated) | > 100 | 81.8 | > 100 | > 100 | > 100 | > 100 | – | –
45 | CCCCCCCCCCCCOP(=O)(O)OCC(N)C(=O)O (configuration not stated) | 51.8 | > 100 | > 100 | 64 | – | 36.8 | 50.1 | > 100
46 | CCCCNC(=S)Nc1nc(C(=O)NNC(=S)NC2CCCCC2)cs1 | > 100 | > 100 | > 100 | > 100 | > 100 | – | > 100 | > 100
47 | CCCCCCCCCCCCCC[S+](C)C | 5.13 | > 10 | 4.67 | – | 2.95 | 2.47 | > 10 | > 10
48 | COC(=O)c1ccc(C)cc1/C=C1\Cc2ccc(C)cc2C1=O | – | 69.6 | 40.6 | 30 | 33.8 | 18.2 | – | 42.3
49 | CC(=O)OCC1OC(SC2OC(COC(C)=O)C(OC(C)=O)C(OC(C)=O)C2OC(C)=O)C(OC(C)=O)C(OC(C)=O)C1OC(C)=O (configuration not stated) | – | > 100 | > 100 | > 100 | > 100 | > 100 | > 100 | > 100
50 | N#C/C(=C\c1cc(Cl)cc(Cl)c1)c1ccccn1 | > 100 | – | > 100 | 48.7 | > 100 | > 100 | > 100 | > 100
51 | O=c1[nH]c(=O)n(C2CC(O)C(CO)O2)cc1C1=NC1 (configuration not stated) | > 100 | > 100 | > 100 | > 100 | > 100 | – | > 100 | > 100
52 | CC(=O)O[C@@H]1C2=C(C)C=C(O2)[C@H]2O[C@]2(C)C[C@H]2C=C(C(=O)O2)[C@H](OC(C)=O)CC1[C@@]1(C)CO1 (some centres not stated) | > 100 | 39.7 | 44.8 | 48.5 | > 100 | – | > 100 | 76.8
53 | O=C(O)c1cnc2[nH]ccn2c1=O | – | > 100 | > 100 | > 100 | – | > 100 | > 100 | > 100
